PMC4619319, “A potent anti-inflammatory peptide from the salivary glands of horsefly” (Parasites & Vectors, 2015)

How the values were obtained:
[1] = test system: TNF-α transcription; assay: LPS-stimulated TNF-α transcription in peritoneal macrophages (qPCR); assay type: cell-based, mouse; settings: 20 μg/mL peptide, 100 ng/mL LPS, 6 h
Protocol: (§1) qPCR was performed using SYBR green master mix (Takara, Japan) on a Realplex Mastercycler real-time PCR system (Eppendorf, Germany) according to the manufacturer’s instruction. The gene transcription levels were normalized to GAPDH or β-actinas as illustrated in figure legends and calculated by ΔΔCt method. The accuracy of qPCR results were checked by melting curve analysis. qPCR primers were listed in Additional file 1: Table S1.
(§2) Cells were incubated with peptides (0, 5, 10, and 20 μg/mL) with or without 100 ng/mL LPS (from E. coli 0111:B4, Sigma-Aldrich, USA) for 6 h. After treatment, culture medium was collected for TNF-α, IL-1β and IL-6 quantification using enzyme-linked immunosorbent assay (ELISA) kits (Dakewei, China). Cells were washed with ice-cold PBS and lysed by Trizol reagent (Life Tech, USA). Total RNA was extracted for cDNA synthesis to quantify TNF-α, IL-1β and IL-6 transcription levels by qPCR as described in qPCR section.

[2] = test system: IL-1β transcription; assay: LPS-stimulated IL-1β transcription in peritoneal macrophages (qPCR); assay type: cell-based, mouse; settings: 20 μg/mL peptide, 100 ng/mL LPS, 6 h
Protocol: as §1, §2

[3] = test system: IL-6 transcription; assay: LPS-stimulated IL-6 transcription in peritoneal macrophages (qPCR); assay type: cell-based, mouse; settings: 20 μg/mL peptide, 100 ng/mL LPS, 6 h
Protocol: as §1, §2

[4] = test system: TNF-α production; assay: LPS-stimulated TNF-α production in peritoneal macrophages (ELISA); assay type: cell-based, mouse; settings: 20 μg/mL peptide, 100 ng/mL LPS, 6 h
Protocol: as §2

[5] = test system: P-ERK2; assay: Western blot, LPS-induced P-ERK2 in peritoneal macrophages; assay type: cell-based, mouse; settings: 20 μg/mL peptide, 100 ng/mL LPS, 30 min, band density ratio to β-actin
Protocol: (§3) Cells were treated with different concentrations of cecropin-TY1 (0, 5, 10, and 20 μg/mL) in the presence or absence of 100 ng/mL LPS (from E. coli 0111:B4, Sigma-Aldrich, USA). After 30-min incubation, cells were washed twice with ice-cold PBS and lysed with RIPA lysis buffer (Beyotime, China) on ice for 30 min according to our previous method. Protein concentration was quantified by BCA Protein Assay Kit (Thermo, Germany). About 40 μg protein was separated on a 10 % SDS-PAGE gel and transferred to a polyvinylidene difluoride membrane. The membrane was blocked by incubating with 5 % BSA (BD, USA) dissolved in Tris-buffered solution Tween-20 (TBST, 2.42 g/L Trisbase, 8 g/L NaCl, 0.1 % Tween 20, pH 7.6) for 2 h at room temperature. The membrane was then incubated with primary antibodies against ERK, phospho-ERK, p38, phospho-p38, JNK, phospho-JNK, phospho-IκBα, NF-κB p65 and phospho-NF-κB p65 (1:2000, Cell Signaling Technology, USA) and GAPDH/β-actin (1:5000, Santa Cruz Biotechnology, USA) overnight at 4 °C, respectively. After incubation, the immunoblot was washed three times with TBST for 5 min each time, and incubated with secondary antibody (1:5000, Cell Signaling Technology, USA) at room temperature for 1 h. Signals were measured by enhanced chemiluminescence kit in a dark room after washing three times with TBST for 10 min each time (TIANGEN, China).

[6] = test system: P-JNK2; assay: Western blot, LPS-induced P-JNK2 in peritoneal macrophages; assay type: cell-based, mouse; settings: 20 μg/mL peptide, 100 ng/mL LPS, 30 min, band density ratio to β-actin
Protocol: as §3

[7] = test system: P-p38; assay: Western blot, LPS-induced P-p38 in peritoneal macrophages; assay type: cell-based, mouse; settings: 20 μg/mL peptide, 100 ng/mL LPS, 30 min, band density ratio to β-actin
Protocol: as §3

[8] = Circular dichroism, secondary structural components; assay type: physicochemical; settings: CD, 25 °C, average of three scans
Protocol: CD spectra were collected on a Jasco-810 spectropolarimeter (Jasco, Tokyo, Japan) with a 1-mm path-length cell at 25 °C and 0.2-nm intervals from 190 to 260 nm. Cecropin-TY1 was dissolved in H2O, TFE/water solution, SDS/water solution and LPS/water solution at the concentration of 0.2 mg/mL. The data from three scans were averaged and smoothed using the Jasco-810 software for each spectrum. CD data were expressed as the mean residue ellipticity (θ) in deg.cm^2.dmol^−1.

[9] = LPS 50 ng/mL in water, peptide 0.2 mg/mL
[10] = LPS 100 ng/mL in water, peptide 0.2 mg/mL
[11] = LPS 200 ng/mL in water, peptide 0.2 mg/mL
[12] = LPS 400 ng/mL in water, peptide 0.2 mg/mL
[13] = SDS 5 mM in water, peptide 0.2 mg/mL
[14] = SDS 10 mM in water, peptide 0.2 mg/mL
[15] = SDS 20 mM in water, peptide 0.2 mg/mL
[16] = SDS 40 mM in water, peptide 0.2 mg/mL

## GWLKKIGKKIERVGQNVRNAAISTLPIAQGAAGVAGALN-NH2 [cecropin-TY1, cecropin antimicrobial peptide from salivary glands of horsefly Tabanus yao, 39 residues, C-terminally amidated, synthesized]
[1]
  attenuation of LPS-stimulated TNF-α transcription: 60.3%
[2]
  attenuation of LPS-stimulated IL-1β transcription: 67.5%
[3]
  attenuation of LPS-stimulated IL-6 transcription: 94.1%
[4]
  reduction of LPS-induced TNF-α production: 72.1%
[5]
  inhibition of LPS-induced P-ERK2 expression: 84.9%
[6]
  inhibition of LPS-induced P-JNK2 expression: 66.1%
[7]
  inhibition of LPS-induced P-p38 expression: 46.4%
[8]; H2O, peptide 0.2 mg/mL
  Beta (%): 0.0%
  Helix (%): 0.0%
  Random (%): 71.1%
  Turn (%): 28.9%
[8]; [9]
  Beta (%): 32.4%
  Helix (%): 0.0%
  Random (%): 55.2%
  Turn (%): 12.4%
[8]; [10]
  Beta (%): 46.6%
  Helix (%): 2.9%
  Random (%): 47.4%
  Turn (%): 3.1%
[8]; [11]
  Beta (%): 44.5%
  Helix (%): 12.7%
  Random (%): 41.1%
  Turn (%): 1.7%
[8]; [12]
  Beta (%): 47.8%
  Helix (%): 14.8%
  Random (%): 37.2%
  Turn (%): 0.1%
[8]; [13]
  Beta (%): 17.5%
  Helix (%): 45.3%
  Random (%): 37.2%
  Turn (%): 0.0%
[8]; [14]
  Beta (%): 22.7%
  Helix (%): 41.2%
  Random (%): 36.1%
  Turn (%): 0.0%
[8]; [15]
  Beta (%): 13.4%
  Helix (%): 46.6%
  Random (%): 40.0%
  Turn (%): 0.0%
[8]; [16]
  Beta (%): 7.4%
  Helix (%): 54.4%
  Random (%): 38.2%
  Turn (%): 0.0%
[8]; TFE/H2O 3:7, peptide 0.2 mg/mL
  Beta (%): 28.7%
  Helix (%): 28.4%
  Random (%): 42.8%
  Turn (%): 0.0%
[8]; TFE/H2O 5:5, peptide 0.2 mg/mL
  Beta (%): 22.4%
  Helix (%): 36.9%
  Random (%): 40.7%
  Turn (%): 0.0%
[8]; TFE/H2O 7:3, peptide 0.2 mg/mL
  Beta (%): 22.4%
  Helix (%): 37.8%
  Random (%): 39.9%
  Turn (%): 0.0%
[8]; TFE/H2O 9:1, peptide 0.2 mg/mL
  Beta (%): 15.0%
  Helix (%): 45.1%
  Random (%): 39.9%
  Turn (%): 0.0%
